“Also recorded” adds a separate entry of the source. Like-named read-outs stand apart in the source and are kept apart here.
Experiments:
dogs [1] = conditions: continuous i.v. infusion, cited from earlier work
monkeys = conditions: continuous i.v. infusion of 1000 mg/kg/day, 28 days; cited from earlier work
[2] = test system: patients with Amyotrophic Lateral Sclerosis (ALS); test: Clinical assessment of neuropathy in the clinical study of edaravone granules for oral solution; type: in vivo, human
Procedure: A clinical study was started to investigate the efficacy and safety of 100 mg of edaravone granules for oral solution (composition shown in table 1 above) in 300 patients with Amyotrophic Lateral Sclerosis (ALS) following treatment for 48 or 72 weeks. The first 100 subjects enrolled will have either 72 weeks of follow-up or have reached an intercurrent event, and the rest (about two thirds of enrolled patients) will be followed up to 48 weeks (or have reached an intercurrent event).
During the treatment, the participants are randomly assigned to receive a daily dose of 100 mg of either edaravone (composition shown in table 1 above) or placebo at a ratio of 2:1 (i.e., two thirds of the patients receive the edaravone formulation and one third receives placebo) for 72 weeks. The study medication, both the placebo and edaravone, is available in single-dose sachets, which must be dissolved in water and taken orally once daily in the morning after a lapse of at least 2 hours from the last meal consumption.
Several authors and regulatory agencies (see for instance EMA/CHMP/290284/2019, page 134) consider that monitoring of the levels of pyridoxal 5'-phosphate (PLP), the active form of vitamin B6, and testing of motor or sensory nerve conduction, such as Nerve Conduction Studies (NCS) described below, should be carried out in order to allow for early detection of neurotoxicity. In addition to this, clinical assessment of neuropathy of patients was carried out by neurologist.
Moreover, the percentage of neuropathy found in patients suffering from other chronic diseases such as diabetes, HIV infection or alcoholism is higher than 20 %. When the blinding of the study is broken, the specific percentages of neuropathy could be linked to the edaravone and placebo arms.

[3] = Vitamin B6 monitoring (plasma pyridoxal 5'-phosphate) within the clinical study; type: in vivo, human; set-up: Plasma vitamin B6 (pyridoxal 5'-phosphate), Change from baseline, Median / Plasma vitamin B6 (pyridoxal 5'-phosphate), Change from baseline, Mean: unit not given here; conditions: for Plasma vitamin B6 (pyridoxal 5'-phosphate), Observed value, Median / Plasma vitamin B6 (pyridoxal 5'-phosphate), Observed value, Mean: no unit in table
Procedure: Therefore, potential neurotoxicity by NCS assessment and by PLP levels during the conduct of the current study was monitored.
Plasmatic concentration of vitamin B6 was monitored at each visit. The normal range of plasma concentration of vitamin B6 in humans (measured as pyridoxal 5'-phosphate) is […], values below this range are considered 'low' and values above, 'high'. In the inclusion visit at time zero patients were classified as 'normal', 'low' or 'high' and the change of this classification was assessed at each visit.
The fact that most of the patients show no change in the classification as 'normal', 'low', or 'high' during the study is a sign of low neurotoxicity of the product. This is the case for patient showing no shift from baseline, for instance 'Normal to Normal' patients.

beagle dogs = conditions: continuous edaravone infusion; cited from earlier work
[4] = test system: patients with Amyotrophic Lateral Sclerosis (ALS); test: Nerve Conduction Study (NCS) within the clinical study; type: in vivo, human; conditions: for Sural-Radial Amp Ratio (SRAR), Shift from Baseline: Low to Low / Sural-Radial Amp Ratio (SRAR), Shift from Baseline: Low to Normal / Sural-Radial Amp Ratio (SRAR), Shift from Baseline: Normal to Low / Sural-Radial Amp Ratio (SRAR), Shift from Baseline: Normal to Normal / Sural nerve - SNAP Amp, Shift from Baseline: Low to Low / Sural nerve - SNAP Amp, Shift from Baseline: Low to Normal / Sural nerve - SNAP Amp, Shift from Baseline: Normal to Low / Sural nerve - SNAP Amp, Shift from Baseline: Normal to Normal: blinded pool edaravone/placebo 2:1
Procedure: A centralized evaluation was performed by neurophysiologists to avoid any bias between sites and to guarantee the safety of patients. The NCS was initially performed for the first 60 enrolled patients at screening, and on weeks 4, 12, and 24. […] NCS main criteria for neuropathy are decreased sural nerve SNAP (sensory nerve action potential) amplitudes or decreased sural/radial nerve amplitude ratio (SRAR), although all data is assessed globally. […] The fact that most of the patients show no change in these values, i.e., that they start with 'normal' and remain 'normal' is a sign of lack of neurotoxicity of the treatment. The appearance of neuropathy may also occur at the normal population for other causes such as diabetes or alcoholism, totally unrelated to any treatment. The NCS protocol evaluates the sensory nerve action potential (SNAP) amplitudes using standard ring-electrodes and predefined sites for both stimulus (antidromic) and recording sites, including standardized distances that also apply for the inter-electrode distances. […] These measures eliminate any unwanted variation due to instrumentational differences. NCS data is evaluated independently at a single specialized unit taking into account reference values provided by participating sites and using age-adjusted reference values. Recordings can be performed on a standard type of electromyograph (EMG) equipment (e.g., Natus Nicolet EDX, Nicolet Viking, Dantec Keypoint, TECA Synergy, Cadwell). The following steps were followed to perform the NCS assessment: • Recording and documentation of temperature at start of the assessment at hand and foot respectively. Limb temperature should be ≥ 31°C, otherwise warming may be considered or alternatively accepted correction factor for decreased temperature could be done. • Unilateral recording of sensory responses of the following nerves (hand, followed by lower limb) was carried out: • ∘ Median nerve (hand, dig II). The distance from the stimulus and recording electrode should be recorded. • ∘ Ulnar nerve (hand, dig V). The distance from the stimulus and recording electrode should be recorded. • ∘ Radial nerve (back of the hand). A standardized distance stimulus-recording electrode of 12 cm should be used. • ∘ Sural nerve (leg, lateral malleolus). A standardized distance stimulus-recording electrode of 12 cm should be used. • Recording of sensory responses were carried out using standardized sides (left or right) for stimulation (assessments were performed on one side only, the same side for each subject was used throughout the study). Electrodes were placed at an interelectrode distance of 2 cm. […] For each nerve, sensory nerve action potential (SNAP) amplitudes were evaluated. Antidromic stimulus were provided to the subjects. Required quality of the NCS included: optimization of the recordings, ensuring flat base line without a slope, omitting stimulus artifacts and background noise, so that markers could be placed appropriately, and true SNAP amplitude values could be obtained accurately. The NCS Ranges of normality considered for this clinical study for SNAP Amp (sensory nerve action potential amplitude) and SCV (sensory conduction velocity) are shown below: Table 4 Normal values for the sensory nerve action potential amplitude (SNAP Amp) for the sural nerve are values higher than 8 µV for subjects with less than 40 years of age, higher than 5 µV for subjects with 40-60 years of age, and higher than 2 µV for subjects with more than 60 years of age. Normal values for the sural-radial Amp ratio (SRAR) are values higher than 0.45 for subjects with 18-39 years, higher than 0.32 for subjects with 40-59 years and higher than 0.19 for subjects with 60 or more years of age.

dogs [5] = conditions: cited from earlier work
[6] = Visit 1 (Baseline, before treatment), N=163
[7] = Visit 2 (Week 4), N=159, blinded pool edaravone/placebo 2:1
[8] = Visit 3 (Week 12), n=109, blinded pool edaravone/placebo 2:1
[9] = Visit 4 (Week 24), n=59, blinded pool edaravone/placebo 2:1
[10] = Visit 5 (Week 36), n=12, blinded pool edaravone/placebo 2:1

SMILES: CC1=NN(c2ccccc2)C(=O)C1 [edaravone, 5-methyl-2-phenyl-4H-pyrazol-3-one]
- onset of dose-dependent impaired motor function (dogs [1]; 300 mg/kg/day): 13 days
- onset of dose-dependent impaired motor function (dogs [1]; ≥60 mg/kg/day): 18 days of treatment
- finding associated with the loss of motor function (dogs [1]): axonal degeneration of peripheral nerves fibres and in the CNS
- histological correlate in the central and peripheral nervous system (monkeys): minimal to severe nerve fibre degenerations
- motor deficits, time of appearance (monkeys): third and fourth week
- patients showing clinical signs of neuropathy ([2]; 313 randomized patients, blinded pool edaravone/placebo 2:1, 100 mg oral once daily, treated 6 months to one year and 7 months): 2.2%
- percentage of neuropathy in patients compared with normal population ([2]; clinical trial with edaravone, normal population about 8 %): not higher than the percentage found in the normal population
- number of patients showing clinical signs of neuropathy ([2]; out of 313 randomized patients, blinded pool edaravone/placebo 2:1, treated 6 months to one year and 7 months): 7
- Plasma vitamin B6 (pyridoxal 5'-phosphate), Observed value, Median ([3]; Screening (before treatment), n=182): 41.50
- Plasma vitamin B6 (pyridoxal 5'-phosphate), Observed value, Mean ([3]; Screening (before treatment), n=182, normal range 12-128 ng/L): 74.90
- Plasma vitamin B6 (pyridoxal 5'-phosphate), Observed value, Mean [3, 6]: 76.6
- Plasma vitamin B6 (pyridoxal 5'-phosphate), Observed value, Median [3, 6]: 41.0
- Plasma vitamin B6 (pyridoxal 5'-phosphate), Change from baseline, Mean [3, 7]: 0.5
- Plasma vitamin B6 (pyridoxal 5'-phosphate), Change from baseline, Median [3, 7]: 2.0
- Plasma vitamin B6 (pyridoxal 5'-phosphate), Observed value, Mean [3, 7]: 77.10
- Plasma vitamin B6 (pyridoxal 5'-phosphate), Observed value, Median [3, 7]: 43.0
- Plasma vitamin B6 (pyridoxal 5'-phosphate), Change from baseline, Mean [3, 8]: -6.8
- Plasma vitamin B6 (pyridoxal 5'-phosphate), Change from baseline, Median [3, 8]: 2.0
- Plasma vitamin B6 (pyridoxal 5'-phosphate), Observed value, Mean [3, 8]: 69.80
- Plasma vitamin B6 (pyridoxal 5'-phosphate), Observed value, Median [3, 8]: 43.0
- Plasma vitamin B6 (pyridoxal 5'-phosphate), Change from baseline, Mean [3, 9]: -0.7
- Plasma vitamin B6 (pyridoxal 5'-phosphate), Change from baseline, Median [3, 9]: 4.0
- Plasma vitamin B6 (pyridoxal 5'-phosphate), Observed value, Mean [3, 9]: 75.9
- Plasma vitamin B6 (pyridoxal 5'-phosphate), Observed value, Median [3, 9]: 45.0
- Plasma vitamin B6 (pyridoxal 5'-phosphate), Change from baseline, Mean [3, 10]: 19.2
- Plasma vitamin B6 (pyridoxal 5'-phosphate), Change from baseline, Median [3, 10]: 33.5
- Plasma vitamin B6 (pyridoxal 5'-phosphate), Observed value, Mean [3, 10]: 95.8
- Plasma vitamin B6 (pyridoxal 5'-phosphate), Observed value, Median [3, 10]: 74.5
- plasmatic concentration of vitamin B6 versus baseline ([3]; monitored at each visit): do not show a decrease; also recorded: not reduced from baseline
- plasma levels of vitamin B6 (beagle dogs): decreasing plasma levels of vitamin B6
- Sural-Radial Amp Ratio (SRAR), Shift from Baseline: Low to Low ([4]; Visit 2 (Week 4), N=165): 9 (5.5) n (%)
- Sural-Radial Amp Ratio (SRAR), Shift from Baseline: Low to Normal ([4]; Visit 2 (Week 4), N=165): 8 (4.8) n (%)
- Sural-Radial Amp Ratio (SRAR), Shift from Baseline: Normal to Low ([4]; Visit 2 (Week 4), N=165): 6 (3.6) n (%)
- Sural-Radial Amp Ratio (SRAR), Shift from Baseline: Normal to Normal ([4]; Visit 2 (Week 4), N=165): 142 (86.1) n (%)
- Sural nerve - SNAP Amp, Shift from Baseline: Low to Low ([4]; Visit 2 (Week 4), N=167): 3 (1.8) n (%)
- Sural nerve - SNAP Amp, Shift from Baseline: Low to Normal ([4]; Visit 2 (Week 4), N=167): 0 (0.0) n (%)
- Sural nerve - SNAP Amp, Shift from Baseline: Normal to Low ([4]; Visit 2 (Week 4), N=167): 2 (1.2) n (%)
- Sural nerve - SNAP Amp, Shift from Baseline: Normal to Normal ([4]; Visit 2 (Week 4), N=167): 162 (97.0) n (%)
- Sural-Radial Amp Ratio (SRAR), Shift from Baseline: Low to Low ([4]; Visit 3 (Week 12), N=112): 5 (4.5) n (%)
- Sural-Radial Amp Ratio (SRAR), Shift from Baseline: Low to Normal ([4]; Visit 3 (Week 12), N=112): 4 (3.6) n (%)
- Sural-Radial Amp Ratio (SRAR), Shift from Baseline: Normal to Low ([4]; Visit 3 (Week 12), N=112): 10 (8.9) n (%)
- Sural-Radial Amp Ratio (SRAR), Shift from Baseline: Normal to Normal ([4]; Visit 3 (Week 12), N=112): 93 (83.0) n (%)
- Sural nerve - SNAP Amp, Shift from Baseline: Low to Low ([4]; Visit 3 (Week 12), N=115): 2 (1.7) n (%)
- Sural nerve - SNAP Amp, Shift from Baseline: Low to Normal ([4]; Visit 3 (Week 12), N=115): 0 (0.0) n (%)
- Sural nerve - SNAP Amp, Shift from Baseline: Normal to Low ([4]; Visit 3 (Week 12), N=115): 3 (2.6) n (%)
- Sural nerve - SNAP Amp, Shift from Baseline: Normal to Normal ([4]; Visit 3 (Week 12), N=115): 110 (95.7) n (%)
- Sural-Radial Amp Ratio (SRAR), Shift from Baseline: Low to Low ([4]; Visit 4 (Week 24), N=59): 4 (6.8) n (%)
- Sural-Radial Amp Ratio (SRAR), Shift from Baseline: Low to Normal ([4]; Visit 4 (Week 24), N=59): 1 (1.7) n (%)
- Sural-Radial Amp Ratio (SRAR), Shift from Baseline: Normal to Low ([4]; Visit 4 (Week 24), N=59): 4 (6.8) n (%)
- Sural-Radial Amp Ratio (SRAR), Shift from Baseline: Normal to Normal ([4]; Visit 4 (Week 24), N=59): 50 (84.7) n (%)
- Sural nerve - SNAP Amp, Shift from Baseline: Low to Low ([4]; Visit 4 (Week 24), N=60): 0 (0.0) n (%)
- Sural nerve - SNAP Amp, Shift from Baseline: Low to Normal ([4]; Visit 4 (Week 24), N=60): 0 (0.0) n (%)
- Sural nerve - SNAP Amp, Shift from Baseline: Normal to Low ([4]; Visit 4 (Week 24), N=60): 3 (5.0) n (%)
- Sural nerve - SNAP Amp, Shift from Baseline: Normal to Normal ([4]; Visit 4 (Week 24), N=60): 57 (95.0) n (%)
- main criteria for neuropathy: decreased sural nerve SNAP amplitudes or decreased sural/radial nerve amplitude ratio (SRAR) ([4]; at baseline and at different times during the study): not found in most of the patients
- levels of pyridoxal 5'-phosphate (PLP) (dogs [5]; continuous i.v. infusions of 1000 mg/kg/day): reduced
- onset of the axonal nerve fibre degenerations (dogs [5]; continuously infused i.v. dose 120 mg/kg/day): 15 days
- onset of the axonal nerve fibre degenerations (dogs [5]; continuously infused i.v. dose 300 mg/kg/day): 11 days

Reference: patent publication EP4559463A1, “EDARAVONE OR ITS SALTS FOR USE IN THE TREATMENT OF OXIDATIVE STRESS-MEDIATED NEURODEGENERATIVE DISORDERS” (Ferrer Internacional, S.A., priority 2023, dated 2025)
